Measured values published in US10017480B2, “Compounds having a selective PDE4D inhibiting activity” (UNIVERSITÂ DEGLI STUDI DI GENOVA, priority 2014, dated 2018).
Marks after values point to notes of the source that are not given here.

Tests used:
[1] = target: T1, PDE4C2 (Homo sapiens, UniProt Q08493); test: PDE4C2 enzyme inhibition (IMAP); assay type: biochemical
T1 construct: purchased Scottish Biomedical (Glasgow, Scotland, UK); host or cells: baculoviral system
Procedure: (§1) Compound's evaluation on PDE4D3, PDE4A4, PDE4B2 and PDE4C2 enzyme assays were performed by Scottish Biomedical (Glasgow, Scotland, UK) using recombinant human PDE enzymes expressed in a baculoviral system. The preliminary screening assays were performed by the IMAP technology (Molecular Devices), which is based on the high affinity binding of phosphate by immobilized metal coordination complexes on nanoparticles. The binding reagent complexes with phosphate groups on nucleotide monophosphate generated from cyclic nucleotides (cAMP) through phosphodiesterases. With fluorescence polarization detection, binding causes a change in the rate of the molecular motion of the phosphate bearing molecule and results in an increase in the fluorescence polarization value observed for the fluorescent label attached to the substrate. […] All compounds were solved in DMSO at 10^−2 M concentration and then diluted with water to the final suitable concentrations. All synthesized compounds were tested preliminary on PDE4D3 at 10^−5 M concentration, in duplicate. Results are expressed as a percent inhibition of control activity (see table 1).
(§2) The IC50 values obtained for the reference compounds are within accepted limits of historic averages obtained (0.5 log unit). IC50 values are reported at μM concentration in table 1. […] The results are reported (as percent of inhibition at 10 μM concentration) in Table 1.

[2] = Pharmacokinetic analysis, plasma and brain
[3] = test system: HTLA cells; test: Genotoxicity, Western blot of γ-H2AX; assay type: cell-based, human; settings: 100 μM
Text: To evaluate the genotoxic potential of XVIIIa and GEBR-7b, we analyzed the phosphorylation of the chromatin-bound histone H2AX (γ-H2AX), which is a quantitative marker for the DNA damage response at the site of double-strand breaks.
The H2AX signal represents the internal loading control.

[4] = target: PDE4D3 (Homo sapiens, UniProt Q08499); test: PDE4D3 enzyme inhibition (IMAP); assay type: biochemical
Procedure: as §1
IC50 values are reported at μM concentration in table 1. […] The results are reported (as percent of inhibition at 10 μM concentration) in Table 1.

[5] = target: PDE4D1 (Homo sapiens, UniProt Q08499); test: PDE4D1 enzyme inhibition (IMAP); assay type: biochemical
[6] = test system: extracellular cAMP in the hippocampus of freely moving rats; test: In vivo cAMP-enhancing potential, intracerebral microdialysis
Procedure: The in vivo effects of XVIIIa on extracellular cAMP levels in the hippocampus of freely moving rats were analyzed by means of intracerebral microdialysis.
However, when the PDE4D inhibitor was infused at the concentration of 100 μM, a marked cAMP response could be observed (40-80% over basal values) as reported in FIG. 3. The effects of XVIIIa were similar to those previously reported for the PDE4D inhibitor GEBR-7b (lead compound; data taken from Bruno et al., Br. J. Pharmacol. 2011, 164, 2054-2063).
XVIIIa or GEBR-7b were administered through the probe after 3 consecutive control samples had been collected and were present in the infusion fluid for the time indicated by the horizontal empty bar. Data are expressed as percentages of the mean basal value (defined 100%) that was determined by averaging the cAMP content in the three fractions collected before drug treatment. Each point represents the mean±SEM for 3-6 different experiments.

[7] = target: PDE4D2 (Homo sapiens, UniProt Q08499); test: PDE4D2 enzyme inhibition (IMAP); assay type: biochemical
[8] = test system: forskolin (FSK)-induced cAMP in neuronal cultured cells; test: In vitro cAMP-enhancing potential (EIA); settings: 100 μM; for basal cAMP levels: without FSK
[9] = Cytotoxicity, lactate-dehydrogenase release; assay type: cell-based; settings: human, HTLA human neuronal cells
Procedure: To evaluate the preliminary toxic profile of the molecule XVIIIa, we performed cytotoxicity and genotoxicity assays on human neuronal cells (HTLA). For the cytotoxic potential, we analyzed the lactate-dehydrogenase release in cells exposed for 24 hours to high concentrations (100 μM) of XVIIIa or GEBR-7b (lead compound—Bruno et al, Br. J. Pharm., 2011, 164:2054).

[10] = test system: hippocampal slices from Tg2576 mice and WT littermates; test: Electrophysiological study, LTP in hippocampal slices; settings: 2 μM, bath, 20 minutes before theta burst stimulation
Procedure: Compound XVIIIa was tested to determine whether PDE4D inhibition can revert the damage of synaptic function following Aβ elevation in Tg2576 mice.
All experiments were performed with approval of the Columbia University IACUC Committe. The animals were 12 month old single transgenic mice expressing the human APP mutation (K670N,M671L) (a.k.a. Tg2576), as well as their WT littermates.
Slice recordings were performed as described previously (Trinchese et al, Ann Neurol 2004). Briefly, 400-μm slices were cut with a tissue chopper and maintained in an interface chamber at 29° C. for 90 minutes prior to recording. CA1 fEPSPs were recorded by placing both the stimulating and the recording electrodes in CA1 stratum radiatum. Basal synaptic transmission was assayed either by plotting the stimulus voltages against slopes of fEPSP. For LTP experiments, a 10-minute baseline was recorded every minute at an intensity that evokes a response approximately 35% of the maximum evoked response. Baseline was followed by a 20 minute perfusion with the compound prior to eliciting LTP using θ-burst stimulation (4 pulses at 100 Hz, with the bursts repeated at 5 Hz, and each tetanus including 3 ten-burst trains separated by 15 seconds). […]

[11] = target: T2, PDE4B2 (Homo sapiens, UniProt Q07343); test: PDE4B2 enzyme inhibition (IMAP); assay type: biochemical; settings: 10 μM
T2 construct: purchased Scottish Biomedical (Glasgow, Scotland, UK); host or cells: baculoviral system
Procedure: as §1, §2

[12] = target: PDE4A4 (Homo sapiens, UniProt P27815); test: PDE4A4 enzyme inhibition (IMAP); assay type: biochemical; settings: 10 μM
Procedure: as §1, §2

[13] = test system: spatial working memory; test: Y-maze continuous alternation task; assay type: in vivo; settings: y-maze 6 min, vehicle 60.36
Procedure: Working memory function is given by the percentage of alternations made while exploring the y-maze for 6 min. No animals were excluded from the statistical analysis.
One-sample t-tests were performed to compare every condition to 50% alternations, i.e. chance level. […] FIG. 7 gives a graphical overview of the Y-maze alternation performance.

[14] = test system: spatial object memory performance; test: OLT dose-response experiment; assay type: in vivo; settings: for d2 (discrimination performance): 24 h interval, mean (SEM)
[15] = test system: α2-adrenoceptor-mediated anesthesia; test: Ketamine/xylazine induced α2-adrenoceptor-mediated anesthesia test (emesis surrogate); assay type: in vivo, mice; settings: for Time anesthetized: relative to vehicle (set at 100%)
Procedure: A shorter anesthesia time than that of the vehicle condition would implicate emetic-like effects. Anesthesia time was calculated relatively to the vehicle condition, which itself was set at 100%, to control for repeated exposure to the test.

[16] = brain, male BALB/c mice, 10 mg/kg subcutaneously
[17] = male, BALB/c, mouse, brain, sc, 10 mg/kg
[18] = male, BALB/c, mouse, plasma, sc, 10 mg/kg
[19] = plasma, male BALB/c mice, 10 mg/kg subcutaneously

Chain of PDE4A4 (P27815 whole entry): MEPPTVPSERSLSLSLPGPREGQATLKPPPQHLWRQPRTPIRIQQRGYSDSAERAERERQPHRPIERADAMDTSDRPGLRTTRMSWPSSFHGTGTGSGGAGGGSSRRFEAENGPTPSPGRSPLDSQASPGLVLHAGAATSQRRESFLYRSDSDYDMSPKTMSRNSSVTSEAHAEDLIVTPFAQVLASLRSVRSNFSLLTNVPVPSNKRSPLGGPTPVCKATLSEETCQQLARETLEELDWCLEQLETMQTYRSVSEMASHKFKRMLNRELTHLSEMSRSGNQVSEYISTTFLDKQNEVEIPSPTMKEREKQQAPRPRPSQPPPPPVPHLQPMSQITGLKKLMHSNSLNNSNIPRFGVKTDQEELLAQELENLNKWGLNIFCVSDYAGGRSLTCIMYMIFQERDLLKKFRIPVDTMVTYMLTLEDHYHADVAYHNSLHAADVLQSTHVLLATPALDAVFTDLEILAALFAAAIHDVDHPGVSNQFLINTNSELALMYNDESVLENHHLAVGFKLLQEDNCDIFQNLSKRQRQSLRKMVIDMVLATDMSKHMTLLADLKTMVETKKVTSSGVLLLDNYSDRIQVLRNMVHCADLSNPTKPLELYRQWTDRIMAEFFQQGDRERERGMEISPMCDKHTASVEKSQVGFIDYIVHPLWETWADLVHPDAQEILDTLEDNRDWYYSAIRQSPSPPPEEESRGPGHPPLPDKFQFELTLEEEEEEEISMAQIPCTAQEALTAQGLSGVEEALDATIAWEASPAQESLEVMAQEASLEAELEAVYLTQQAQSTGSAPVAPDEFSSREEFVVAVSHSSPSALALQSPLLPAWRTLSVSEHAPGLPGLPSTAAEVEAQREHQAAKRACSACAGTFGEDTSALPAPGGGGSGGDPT
T2 sequence (Q07343 1-564 isoform Q07343-2): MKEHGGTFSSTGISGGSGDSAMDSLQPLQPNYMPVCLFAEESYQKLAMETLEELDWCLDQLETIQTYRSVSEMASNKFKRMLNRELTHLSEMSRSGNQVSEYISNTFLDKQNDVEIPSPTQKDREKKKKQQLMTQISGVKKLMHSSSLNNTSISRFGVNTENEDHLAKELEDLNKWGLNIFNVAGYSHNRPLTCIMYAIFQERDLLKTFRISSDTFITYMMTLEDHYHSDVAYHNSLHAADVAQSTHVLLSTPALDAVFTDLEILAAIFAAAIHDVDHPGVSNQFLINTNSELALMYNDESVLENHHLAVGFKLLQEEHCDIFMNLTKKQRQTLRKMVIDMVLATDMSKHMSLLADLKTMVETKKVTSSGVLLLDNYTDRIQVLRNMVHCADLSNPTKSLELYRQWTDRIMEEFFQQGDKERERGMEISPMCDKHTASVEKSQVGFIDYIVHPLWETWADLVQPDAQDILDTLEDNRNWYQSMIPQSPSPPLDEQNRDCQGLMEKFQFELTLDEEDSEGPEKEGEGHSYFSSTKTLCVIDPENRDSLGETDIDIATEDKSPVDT
Chain of PDE4D3 (Q08499 1-673 isoform Q08499-2): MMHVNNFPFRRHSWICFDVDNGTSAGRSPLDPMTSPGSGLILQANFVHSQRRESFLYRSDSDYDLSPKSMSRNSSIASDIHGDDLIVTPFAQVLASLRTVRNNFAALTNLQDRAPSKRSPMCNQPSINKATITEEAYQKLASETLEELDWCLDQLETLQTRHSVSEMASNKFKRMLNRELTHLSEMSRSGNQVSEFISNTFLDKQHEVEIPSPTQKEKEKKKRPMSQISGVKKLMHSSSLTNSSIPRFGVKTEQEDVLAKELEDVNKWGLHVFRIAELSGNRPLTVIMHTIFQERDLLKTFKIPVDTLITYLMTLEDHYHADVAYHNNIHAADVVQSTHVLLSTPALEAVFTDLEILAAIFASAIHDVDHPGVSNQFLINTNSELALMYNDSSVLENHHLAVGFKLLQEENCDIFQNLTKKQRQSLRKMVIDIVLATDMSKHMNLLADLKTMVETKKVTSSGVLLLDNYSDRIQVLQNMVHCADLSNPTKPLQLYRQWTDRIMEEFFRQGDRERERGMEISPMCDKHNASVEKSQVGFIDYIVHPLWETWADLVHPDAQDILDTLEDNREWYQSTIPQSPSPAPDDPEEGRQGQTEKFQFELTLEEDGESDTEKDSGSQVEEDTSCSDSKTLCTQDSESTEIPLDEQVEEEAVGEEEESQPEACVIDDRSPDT
Chain of PDE4D1 (Q08499 1-584 isoform Q08499-4): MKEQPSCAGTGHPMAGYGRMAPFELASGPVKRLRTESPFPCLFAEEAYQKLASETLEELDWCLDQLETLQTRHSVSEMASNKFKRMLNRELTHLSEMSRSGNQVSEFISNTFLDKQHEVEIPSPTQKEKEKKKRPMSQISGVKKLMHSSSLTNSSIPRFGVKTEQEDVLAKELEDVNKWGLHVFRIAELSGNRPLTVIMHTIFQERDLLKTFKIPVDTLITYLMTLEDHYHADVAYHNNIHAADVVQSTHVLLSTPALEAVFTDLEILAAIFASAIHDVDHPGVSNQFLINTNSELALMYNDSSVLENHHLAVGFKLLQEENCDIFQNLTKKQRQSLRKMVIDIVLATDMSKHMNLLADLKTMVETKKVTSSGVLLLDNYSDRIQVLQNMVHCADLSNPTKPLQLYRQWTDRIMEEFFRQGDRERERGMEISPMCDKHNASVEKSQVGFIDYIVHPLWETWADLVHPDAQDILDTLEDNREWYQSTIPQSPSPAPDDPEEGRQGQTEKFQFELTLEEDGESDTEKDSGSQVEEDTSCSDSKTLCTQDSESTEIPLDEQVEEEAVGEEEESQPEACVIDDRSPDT
T1 sequence (Q08493 107-712): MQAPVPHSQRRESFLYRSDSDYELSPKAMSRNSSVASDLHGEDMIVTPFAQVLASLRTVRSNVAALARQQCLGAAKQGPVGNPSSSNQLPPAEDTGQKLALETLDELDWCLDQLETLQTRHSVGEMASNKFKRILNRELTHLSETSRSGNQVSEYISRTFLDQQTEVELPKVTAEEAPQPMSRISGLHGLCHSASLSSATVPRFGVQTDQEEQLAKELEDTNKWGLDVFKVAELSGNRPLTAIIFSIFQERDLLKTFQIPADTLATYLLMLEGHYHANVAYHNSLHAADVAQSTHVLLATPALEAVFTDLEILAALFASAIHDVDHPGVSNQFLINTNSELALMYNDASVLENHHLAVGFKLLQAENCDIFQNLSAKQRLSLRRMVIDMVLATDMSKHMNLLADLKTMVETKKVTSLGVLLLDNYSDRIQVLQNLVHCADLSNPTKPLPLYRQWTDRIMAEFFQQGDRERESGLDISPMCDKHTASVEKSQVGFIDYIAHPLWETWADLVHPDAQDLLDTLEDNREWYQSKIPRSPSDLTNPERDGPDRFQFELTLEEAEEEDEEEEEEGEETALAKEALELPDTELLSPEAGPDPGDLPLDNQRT
Chain of PDE4D2 (Q08499 303-809 limits assumed): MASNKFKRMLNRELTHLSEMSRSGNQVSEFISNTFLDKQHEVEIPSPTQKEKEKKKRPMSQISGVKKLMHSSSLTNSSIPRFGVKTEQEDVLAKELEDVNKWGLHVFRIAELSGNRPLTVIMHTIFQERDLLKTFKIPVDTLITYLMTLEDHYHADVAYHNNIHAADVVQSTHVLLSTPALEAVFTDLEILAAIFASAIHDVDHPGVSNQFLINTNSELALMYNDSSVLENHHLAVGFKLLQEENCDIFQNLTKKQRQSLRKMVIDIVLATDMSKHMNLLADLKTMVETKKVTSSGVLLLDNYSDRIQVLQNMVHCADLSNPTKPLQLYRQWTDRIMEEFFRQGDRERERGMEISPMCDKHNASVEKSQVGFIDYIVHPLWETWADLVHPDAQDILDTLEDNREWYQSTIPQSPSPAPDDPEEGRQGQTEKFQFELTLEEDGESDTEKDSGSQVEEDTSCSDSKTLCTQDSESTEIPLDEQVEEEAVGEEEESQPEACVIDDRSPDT

COc1ccc(-c2ccn(CC(O)CN3CCOCC3)n2)cc1OC1CCCC1 (stereo not drawn) [XVIIIa, 1-{3-[3-(Cyclopentyloxy)-4-methoxyphenyl]-1H-pyrazol-1-yl}-3-morpholin-4-ylpropan-2-ol dihydrocloride]
PDE4C2 % inib at 10 μM [1]: 11%
AUC0-t [2, 16]: 812 ng·h/g
Cmax [2, 17]: 936 ng/g
Tmax [2, 17]: 10.2 min
half-life [2, 17]: 32.4 min
Kp ([2]; male, BALB/c, mouse, in vivo, sc, 10 mg/kg): 0.75
AUC0-t [2, 18]: 1890 ng·h/mL
Cmax [2, 18]: 2160 ng/mL
Tmax [2, 18]: 10.2 min
half-life [2, 18]: 49.2 min
DNA damage (γ-H2AX) [3]: not observed
PDE4D3 % inib at 10 μM ([4]; 10 μM, in duplicate): 68%
IC50 ([4]; five concentrations 10^−8-10^−4 M): 7.6 µM
PDE4D1 % inib at 10 μM [5]: 34%
hippocampal extracellular cAMP ([6]; 30 μM by reverse dialysis): slight, though not significant, increase
hippocampal extracellular cAMP response ([6]; 100 μM infused): 40-80 % over basal values
PDE4D2 % inib at 10 μM [7]: 28%
accumulation of forskolin (FSK)-induced cAMP, fold induction ([8]; 10 min pre-treatment, then 1 μM FSK 20 min): 3 fold
basal cAMP levels [8]: without affecting the basal cAMP levels
cytotoxicity at 24 h, 100 µM [9]: 3.3 ± 0.4%
LTP in WT littermates [10]: without affecting LTP
LTP in hippocampal slices from 12 month-old Tg mice [10]: rescued the defect in LTP
PDE4B2 % inib at 10 μM [11]: 18%
PDE4A4 % inib at 10 μM [12]: 22%

OC(CN1CCOCC1)Cn1ccc(-c2ccc(OC(F)F)c(OC3CCCC3)c2)n1 (stereo not drawn) [XXIIa, 1-{3-[3-(cyclopentyloxy)-4-(difluoromethoxy)phenyl]-1H-pyrazol-1-yl}-3-morpholin-4-ylpropan-2-ol]
AUC0-t [2, 16]: 2330 ng·h/g
t1/2 [2, 16]: 57 min
AUC0-t [2, 19]: 861 ng·h/mL
Cmax [2, 19]: 993 ng/mL
Tmax [2, 19]: 19.8 min
DNA damage (γ-H2AX) [3]: not observed
Alternations % ([13]; 0.001 mg/kg): 60.86 ^### %
Alternations % ([13]; 0.003 mg/kg): 63.54 ^### %
Alternations % ([13]; 0.01 mg/kg): 61.88 ^### %
d2 (discrimination performance) ([14]; 0.0003 mg/kg): 0.02 (0.05)
d2 (discrimination performance) ([14]; 0.001 mg/kg): 0.06 (0.05)
memory function (OLT) ([14]; 0.003 mg/kg): fully enhance memory function
d2 (discrimination performance) ([14]; 0.003 mg/kg, p < 0.001 vs zero): 0.34 (0.05) ^###
d2 (discrimination performance) ([14]; 0.01 mg/kg): 0.05 (0.03)
memory improvement (OLT) ([14]; 0.0003, 0.001 and 0.01 mg/kg): did not show any memory improvement at all
Time anesthetized ([15]; 0.003 mg/kg): 112.28%
Time anesthetized ([15]; 0.03 mg/kg): 109.52%
Time anesthetized ([15]; 0.3 mg/kg): 107.45%
emetic-like effects ([15]; 0.003-3.0 mg/kg, one-way ANOVA n.s.): does not have emetic-like effects
Time anesthetized ([15]; 3.0 mg/kg): 91.22%
basal cAMP levels [8]: without affecting the basal cAMP levels
cytotoxicity at 24 h, 100 µM [9]: 0.1 ± 0.36%
PDE4B2 % inib at 10 μM [11]: 26%
PDE4A4 % inib at 10 μM [12]: 11%
